Data reported in paper PMC12304293, “Combatting virulent gut bacteria by inhibiting the biosynthesis of a two-component lanthipeptide toxin” (Nature Communications, 2025).
Like-named read-outs stand apart in the source and are kept apart here. Non-standard residues stand in square brackets, D forms with d. Residues, ends and D or L forms follow the SMILES beside them. *: point of attachment. boroGlu = O=C(O)CC[C@H](N*)B(O)O; Abu = CC[C@H](N)C(=O)O

Tests used:
[1] = molecular target: T1, His6-CylA-27-412 (Enterococcus faecalis, UniProt A0A2P6AWB8); experiment: Analysis of CylA inhibition by LCMS (cleavage of mCylLL and mCylLS); assay type: biochemical; settings: 1 µM inhibitor; enzyme 4 nM; substrate 10 µM; 30 min, room temperature
T1 sequence (A0A2P6AWB8 27-412): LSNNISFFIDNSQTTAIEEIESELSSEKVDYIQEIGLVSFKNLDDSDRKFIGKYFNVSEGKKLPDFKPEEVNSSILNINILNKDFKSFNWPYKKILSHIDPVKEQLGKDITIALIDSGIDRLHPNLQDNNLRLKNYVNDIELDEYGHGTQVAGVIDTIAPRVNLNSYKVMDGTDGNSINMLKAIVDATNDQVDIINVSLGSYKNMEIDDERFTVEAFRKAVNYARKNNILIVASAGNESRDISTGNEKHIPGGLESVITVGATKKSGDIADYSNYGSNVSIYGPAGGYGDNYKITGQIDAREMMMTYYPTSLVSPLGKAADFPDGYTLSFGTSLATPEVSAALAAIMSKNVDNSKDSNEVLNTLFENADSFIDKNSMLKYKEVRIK
Experimental: We expressed CylA in Escherichia coli with an N-terminal His6-tag and without the secretion signal that is present in WT CylA. […] (4 nM) gave partial conversion to the mature core peptide after 30 min at room temperature.
A Peak highlighted in green is the LP and peak highlighted in orange is CylLL”. B Peak highlighted in blue is the LP and peak highlighted in violet is CylLS”. Longer incubation times result in near-complete cleavage of the substrates. Source data are provided as a Source Data file.
His6-CylA-27-412 was added to PBS (pH = 7.4) to achieve a total enzyme concentration of 4 nM then 1 was added to a concentration 1 μM. […] Reactions were allowed to stand for 30 min before quenching through adjustment to 1% formic acid. Reactions were analyzed directly by LCMS using a Jupiter 5 µm C4 300 Å, 50 × 2 mm LC column. The following gradient was used: 98% H2O + 0.1% FA (solvent A)/2% MeCN + 0.1% FA (solvent B) for 2 min then 98:2 to 2:98 solvent A:solvent B over 10 min. Extracted ion chromatograms (EIC) for each species were merged into a single trace. […] CylA was also previously reported to prefer the modified peptides over the linear peptides.

[2] = molecular target: T1, His6-CylA-27-412; experiment: Co-operative pore formation assay (pyranine liposomes) measuring CylA-catalyzed cytolysin maturation; assay type: biochemical
From the text: Cytolysin causes hemolysis and lyses a variety of eukaryotic cells[36],[37]. Additionally, CylA aggregates and is thought to associate primarily with the membrane of the producing cell[52],[53]. To mimic the maturation of cytolysin in vitro, an enzyme assay was designed that linked toxin production to the lysis of fluorescently labeled liposomes. […] In this way, pyranine fluorescence was correlated to toxin activation allowing for the determination of EC50 values (Fig. 4B, C).
Fig. 4 In vitro pore formation assay for determining inhibitor effectiveness. A A schematic of the assay showing how pore formation is used as an indicator of toxin maturation. […] Pore formation dissipates a pH gradient between the interior of the liposome and the surrounding buffer increasing pyranine fluorescence. […] The data points from two replicates are shown (n = 2). Source data are provided as a Source Data file.
Pyranine encapsulated liposomes were prepared as described elsewhere. […] To a well in a black 96-well plate (200 µL) was added 90 µL high pH buffer (5 mM MES, 5 mM Tricine, 5 mM NaCl, pH 7.4) containing CylA (4 nM final concentration). After adding inhibitor, the mixture was incubated at room temperature for 10 min then freshly prepared (no more than 2 days old) pyranine encapsulated DOPC liposomes were added such that the total DOPC concentration was 80 µM. […] The resulting curves were max-min normalized yielding the fraction of permeabilized liposomes. […] This experiment was performed in duplicate or triplicate for each inhibitor at each concentration.
Supplementary Figure 3. Measuring CylA-cat alyzed cytolysin maturation using a pyranine pore formation assay. Plots on the left side show the normalized pyranine emission intensity monitored […]
was added 30 min later. Each trace w as collected using a differ ent total co ncentration of inhibitor as indicated in the l egend. Traces are from a single representative tri al. On the right side, the fraction of liposomes permeabilized after 30 min was plotted as a function of total inhibitor concentration. The data were fit to a dose-response function using Origin 7 and the fit curve is depicted by the red line. Errors bars represent the standard of deviation bet ween two replicates (n = 2). Source d ata are pro vided as a Source Data file. […]

[3] = system: HeLa cells; assay type: cell-based
Experimental: Cell culturing and maintenance was performed in Dulbecco’s Modified Eagle Medium (DMEM, Gibco) supplemented with 10% heat inactivated fetal bovine serum (FBS, Gibco). Cells were routinely checked for mycoplasm using mycoplasm specific primers. HeLa cells (ATCC) were seeded in 96 well plates (Nunc) using a seeding density of 5000 cells/well and allowed to adhere for 16 h at 37 °C, 5% CO2. […] Post-treatment, plates were incubated for 72 h at 37 °C, 5% CO2. Subsequently, the growth medium was removed, and the cells were washed once with pre-warmed phosphate buffered saline (PBS; pH = 7.2). Next, 50 µL of DMEM-FBS media containing 1 mg/mL of 3-(4,5-dimethylthiazol-2-yl)-2,5-diphenyltetrazolium bromide (MTT) was added to the cells and the cells were incubated in the dark at 37 °C, 5% CO2 for 4 h. During this time, live cells reduced yellow tetrazolium salts to purple formazan crystals through NAD(P)H-dependent oxidoreductase activity. After 4 h, the medium was removed carefully and the insoluble formazan crystals were solubilized by incubating with 100 µL of dimethyl sulfoxide (DMSO) in the dark for 1 h with intermittent swirling. Finally, absorbance was recorded at 575 nm (Supplementary Fig. 18). The percentage of cells that survived over the course of the assay was calculated using Eq. 1.1 %survival=100%−Absorbanceoftreatedwell−AvgAbsorbanceofnegativecontrolwells/AvgAbsorbanceofpositivecontrol−AvgAbsorbanceofnegativecontrol*100% […]
Supplementary Figure 18.Cytotoxicity assay of boronic acid inhibitors 2 , 3, 5- 9 against HeLa […]
µM or less as determined by an MTT-based assay. Puromycin was used as positive control, while deionized sterile w ater w as used as a n egative con trol. Source data are prov ided as a Source Dat a […]

CC(=O)NCC(=O)N[C@@H](CC(=O)O)C(=O)N[C@H](C(=O)N[C@@H](CCC(N)=O)C(=O)N[C@@H](C)C(=O)N[C@@H](CCC(=O)O)B(O)O)C(C)C [Compound 1] (Ac-GDVQA-boroGlu)
His6-CylA-27-412-catalyzed cleavage of mCylLS and mCylLL [1]: completely blocked

CC(=O)N[C@@H](CO)C(=O)N[C@@H](CC(=O)O)C(=O)N[C@H](C(=O)N[C@@H](CCC(N)=O)C(=O)N[C@@H](C)C(=O)N[C@@H](CCC(=O)O)B(O)O)C(C)C [Compound 8] (Ac-SDVQA-boroGlu)
EC50 [2]: 40 ± 3 nM

COc1ccc(C[C@H](N)C(=O)N[C@H]2[C@@H](O)[C@H](n3cnc4c(N(C)C)ncnc43)O[C@@H]2CO)cc1 [puromycin]
% survival ([3]; additive concentration 1.6 (unit not given)): 5.522%
% survival ([3]; additive concentration 3.1 (unit not given)): 4.2%
% survival ([3]; additive concentration 6.3 (unit not given)): 4.093%
% survival ([3]; additive concentration 13 (unit not given)): 3.889%
% survival ([3]; additive concentration 25 (unit not given)): 3.867%
% survival ([3]; additive concentration 50 (unit not given)): 3.889%
% survival ([3]; additive concentration 100 (unit not given)): 3.867%

CC[C@H](NC(=O)[C@H](CCC(N)=O)NC(=O)[C@@H](NC(=O)[C@H](CC(=O)O)NC(=O)CNC(C)=O)C(C)C)C(=O)N[C@@H](CCC(=O)O)B(O)O [Compound 6] (Ac-GDVQ[Abu]-boroGlu)
EC50 [2]: 70 ± 11 nM
increase in EC50 relative to 1 ([2]; pore formation assay): ~ 2 fold
